{"source": "patent US20220119868A1", "about": "“PROFILING RNA-SMALL MOLECULE BINDING SITES WITH OLIGONUCLEOTIDES” (priority 2018, published 2022)", "key": {"[1]": {"test_system": "panel of 22 kinases", "experiment": "In vitro inhibition of a panel of kinases", "assay_type": "biochemical", "conditions": "20 μM; for kinases inhibited in the panel: panel of 22 kinases"}, "[2]": {"target": "RNA motif 5′UUA3′/3′A_U5′ (from RNA library C)", "experiment": "In solution, fluorescence-based binding affinity assay", "description": "(§1) Affinity of Selected RNA Motif-Small Molecule Interactions. The affinity of exemplar compounds that have inherent fluorescence was measured. […] . Binding affinities were confirmed using a label-free method, biolayer interferometry.\n(§2) where n1 is the size of Population 1 (number of sequencing reads for a given RNA from RNA-seq analysis of the selected library), n2 is the size of Population 2 (number of sequencing reads for the same RNA from RNA-seq analysis of the starting library), p1 is the observed proportion of Population 1 (the number of reads for a given RNA from selected library/total number of reads), and p2 is the observed proportion for Population 2 (the number of reads for the same RNA in the starting library/total number of reads). Generation of Logos and DiffLogos: Zobs corresponding to the highest (enriched) 0.5% and lowest (discriminated against) 0.5% scores were analyzed to generate consensus sequences, or Logos. The resulting list of sequences were converted to position weight matrix (PWM) lists for each compound. “Enriched” and “discriminated” sequences were kept separate using JMP®, Version <13.2.1>. SAS Institute Inc., Cary, N.C., 1989-2007. The R package Difflogo,^16 which is part of Bioconductor, was utilized to create the sequence logos from PWM lists for each compound and visually compare the differences between them. Binding Affinity Measurements. Dissociation constants were determined using an in solution, fluorescence-based assay. […] Serial dilutions (1:2) of the small molecule were then completed in 1× Assay Buffer supplemented with 1 mM MgCl2. The solutions were incubated for 30 min at room temperature, transferred to a 96-well plate, and fluorescence intensity measured on a BioTek-FLx800 plate reader. The change in fluorescence intensity as a function of small molecule concentration was fit to a one site binding model per equation 3: […]\n(§3) Effect of compounds on HCV replication. […] Cytotoxicity assays. […] Oligonucleotide profiling of target engagement in vitro. […] Primers can be found in Table 4. […] Inhibition of kinases. […] . Figure S7C)."}, "[3]": {"target": "Fully paired RNA", "experiment": "In solution, fluorescence-based binding affinity assay", "description": "as §1, §2, §3"}, "[4]": {"target": "CAMK4 (Homo sapiens, UniProt Q16566)", "sequence (Q16566 whole entry)": "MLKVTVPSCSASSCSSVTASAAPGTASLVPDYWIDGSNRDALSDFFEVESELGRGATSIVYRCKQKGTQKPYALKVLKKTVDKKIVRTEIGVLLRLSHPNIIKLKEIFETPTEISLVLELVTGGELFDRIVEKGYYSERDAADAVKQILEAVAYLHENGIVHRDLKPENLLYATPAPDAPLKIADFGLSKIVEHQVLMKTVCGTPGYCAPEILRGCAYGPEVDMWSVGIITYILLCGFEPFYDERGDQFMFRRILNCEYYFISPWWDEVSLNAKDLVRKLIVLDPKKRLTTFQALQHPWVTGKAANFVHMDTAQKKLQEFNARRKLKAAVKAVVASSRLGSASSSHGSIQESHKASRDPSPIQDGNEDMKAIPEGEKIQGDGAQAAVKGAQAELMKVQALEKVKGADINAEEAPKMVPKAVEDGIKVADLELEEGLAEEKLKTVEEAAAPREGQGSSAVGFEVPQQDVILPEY", "experiment": "In vitro inhibition of a panel of kinases", "assay_type": "biochemical", "conditions": "20 μM", "excerpt": "as §3"}, "[5]": {"test_system": "RNA library C (3×2 nucleotide asymmetric internal loops)", "experiment": "2DCS selection with RNA-seq and HiT-StARTS analysis (Zobs, Fitness Score)", "assay_type": "binding", "design": "key to Fitness Score: Zobs normalized so most significant interaction = 100", "excerpt": "Identification of RNA-binding Small Molecules by 2DCS. […] We have previously validated the secondary structures formed by members of RNA libraries by enzymatic mapping^8, 12, 34. These discrete RNA motifs were selected because they are present in cellular RNAs. Due to the library-versus-library nature of these studies, they represent the largest screens completed to date, probing >52,000,000 interactions. Of the 1,987 compounds probed, 239 bound RNA (12.0%).\nA final screen was then completed in which the 91 array-immobilized compounds were incubated with all five RNA motif libraries separately in the presence of oligonucleotide competitors F-J, d(AT)11 and d(GC)11. Oligonucleotides F-J mimic regions common to all library members, restricting binding to the randomized regions. (Note: oligonucleotide J was not used for hairpin selections.) After rigorous washing to remove unbound RNAs, bound RNAs were harvested and identified by RNA-seq. By completing selections under conditions of high oligonucleotides stringency (by use of excess competitor oligonucleotides), these studies identified small molecules that bound RNA motifs avidly. A challenge in the small molecule RNA-targeting area has been the development and identification of selective interactions between small molecules and RNAs. In myriad studies, 2DCS has defined selective RNA motif-small molecule interactions with varied affinities^11, 12, 35, 36.\nIdentification of Privileged RNA Space by RNA-Seq. Using RNA-seq, a large sequencing dataset was obtained for each pool of RNAs that were specifically bound to each small molecule. RNA libraries A, B, C, D, and E had at least 12.1-fold (average: 133.1±111.8), 6.7-fold (average: 80.8±78.7), 9.9-fold (average: 103.5±110.6), 7.2-fold (average: 75.7±65.6), and 6.0-fold (average: 36.3±31.6) coverage for each small molecule selection, respectively, as compared to the number of unique sequences within the corresponding RNA library. It was previously shown that at least 6-fold coverage is required to generate binding landscape maps^12. RNA-seq data were then analyzed by High Throughput Structure-Activity Relationships Through Sequencing (HiT-StARTS)^12 to identify the privileged RNA motifs that bind each small molecule. Briefly, the frequency of occurrence of a selected RNA was compared to the frequency of occurrence of the same RNA from RNA-seq analysis of the starting RNA library to account for biases arising during transcription and RT-PCR. This pooled population comparison affords the parameter Zobs, a metric of statistical confidence. A large, positive Zobs indicates a strong preference for binding the motif while a negative Zobs indicates a strong preference against binding the motif. A Fitness Score is assigned by normalizing the Zobs values to the most statistically significant small molecule-RNA interaction to 100. […] Structure-Activity Relationships (SAR). Next, the most privileged RNA motif binders and the most discriminated against RNA motifs (non-binders) for each compound selection was analyzed by generating LOGOS from the highest and lowest 0.5% of Zobs scores^37. By comparing the LOGOS for related compounds, or DiffLogos, SAR can be defined. Indeed, various hit compounds differ by a single functional group, including compounds A and B (FIG. 5). […] In contrast, the RNA motifs most hindered from binding compounds 1 and 2 (discriminated against) are quite different (FIG. 5B).\nOligonucleotides. All DNA oligonucleotides were purchased from Integrated DNA Technologies, Inc. (IDT) and used without further purification. RNA oligonucleotide competitors were purchased from Dharmacon and de-protected according to the manufacturer's standard procedure. All oligonucleotide solutions were prepared with NANOpure water. The RNA motif libraries were synthesized by in vitro transcription from the corresponding DNA template that was custom-mixed at the randomized positions to ensure equivalent representation of all four nucleotides. Compounds. […]"}}, "note": "Values joined by “and” are separate entries in the source; they are usually repeats but may differ in a detail not shown here. Identical values can stand only once.", "data": [{"smiles": "O=C(Nc1cccc(NC(=O)Nc2cc(C(=O)Nc3ccc(C4=NCCN4)cc3)ccc2C(=O)Nc2ccc(C3=NCCN3)cc2)c1)Nc1cc(C(=O)Nc2ccc(C3=NCCN3)cc2)ccc1C(=O)Nc1ccc(C2=NCCN2)cc1", "note": "[Compound 7]", "values": [{"measurement": "kinases inhibited in the panel", "setting": "[1]", "result": "affected seven kinases modestly"}, {"measurement": "average percent inhibition of the seven affected kinases", "setting": "[1]", "result": "16±3", "unit": "%"}, {"measurement": "Kd", "setting": "[2]", "result": "380 ± 26", "unit": "nM"}, {"measurement": "Kd", "setting": "[3]", "result": "> 7000", "unit": "nM"}, {"measurement": "inhibition of CAMK4 in vitro", "setting": "[4]", "result": "most significantly inhibited"}, {"measurement": "Fitness Score", "setting": "[5]; RNA motif 5′AAC3′/3′U_G5′", "result": 33}, {"measurement": "Zobs", "setting": "[5]; RNA motif 5′AAC3′/3′U_G5′", "result": 8.2}, {"measurement": "Fitness Score", "setting": "[5]; RNA motif 5′GAG3′/3′C_C5′", "result": 73}, {"measurement": "Zobs", "setting": "[5]; RNA motif 5′GAG3′/3′C_C5′", "result": 18.3}, {"measurement": "Zobs", "setting": "[5]; RNA motif 5′UCCAU3′/3′AUCA (non-binder)", "result": "−2.8"}, {"measurement": "Zobs", "setting": "[5]; RNA motif 5′UCCUU3′/3′AUUA5′ (non-binder)", "result": 1.1}, {"measurement": "Fitness Score", "setting": "[5]; RNA motif 5′UGU3′/3′G_A5′", "result": 47}, {"measurement": "Zobs", "setting": "[5]; RNA motif 5′UGU3′/3′G_A5′", "result": 11.8}, {"measurement": "Zobs", "setting": "[5]; RNA motif 5′UUA3′/3′A_U5′", "result": 25.2}, {"measurement": "Fitness Score", "setting": "[5]; RNA motif 5′UUA3′/3′A_U5′, Zobs normalized to most significant interaction = 100", "result": 100}]}, {"smiles": "O=C(Nc1ccc(C2=NCCN2)cc1)c1cc(C(=O)Nc2ccc(C3=NCCN3)cc2)cc(C(=O)Nc2ccc(C3=NCCN3)cc2)c1", "note": "[Compound 8]", "values": [{"measurement": "kinases inhibited in the panel", "setting": "[1]", "result": "affected seven kinases modestly"}, {"measurement": "average percent inhibition of the seven affected kinases", "setting": "[1]", "result": "14±3", "unit": "%"}, {"measurement": "Kd", "setting": "[2]", "result": "690 nM and 530 nM"}, {"measurement": "Kd", "setting": "[3]", "result": "> 5000", "unit": "nM"}, {"measurement": "inhibition of CAMK4 in vitro", "setting": "[4]", "result": "most significantly inhibited"}, {"measurement": "Fitness Score", "setting": "[5]; RNA motif 5′GAU3′/3′C_A5′", "result": 87}, {"measurement": "Zobs", "setting": "[5]; RNA motif 5′GAU3′/3′C_A5′", "result": 11.8}, {"measurement": "Fitness Score", "setting": "[5]; RNA motif 5′GCU3′/3′C_A5′", "result": 79}, {"measurement": "Zobs", "setting": "[5]; RNA motif 5′GCU3′/3′C_A5′", "result": 10.8}, {"measurement": "Fitness Score", "setting": "[5]; RNA motif 5′UCUAU3′/3′ACCA5′", "result": 45}, {"measurement": "Zobs", "setting": "[5]; RNA motif 5′UCUAU3′/3′ACCA5′", "result": 6.1}, {"measurement": "Zobs", "setting": "[5]; RNA motif 5′UUA3′/3′A_U5′", "result": "13.6 and 9.5"}]}]}
